# Assay results reported in article PMC10286336, “Potassium ion channels as a molecular target to reduce virus infection and mortality of honey bee colonies” (Virology Journal, 2023).
# Read-outs that look alike come from different tables or passages of the source.
# Legend:
# [1] = tested on: total antioxidant concentrations in bees; test: Total antioxidant capacity of bees (quantification of ROS); format: in vivo, Apis mellifera; conditions: alone
# Method: (§1) The ability of KATP modulators to rescue or synergize paraquat-induced mortality was then assessed by incorporating modulators into 1:1 sucrose containing paraquat. […] Quantification of ROS among survivors was performed using the Total Antioxidant Capacity Assay kit (Cayman Chemical).
# honey bees [2] = format: in vivo, Apis mellifera
# Method: An LC50 for paraquat in 1:1 sucrose diet was determined for 72 h of oral exposure by constructing a concentration–response curve. The ability of KATP modulators to rescue or synergize paraquat-induced mortality was then assessed by incorporating modulators into 1:1 sucrose containing paraquat. Mortality assessments and sampling of surviving bees was conducted at 24-h intervals. Quantification of ROS among survivors was performed using the Total Antioxidant Capacity Assay kit (Cayman Chemical).
# [3] = tested on: bees from Varroa destructor infested colonies; format: in vivo, Apis mellifera
# Method: Age-matched bees from colonies with higher (> 10 mites/100 bees) and lower (< 1 mite/100 bees) were placed in hoarding cages and allowed to feed ad libitum on sucrose solution alone or containing paraquat. Survivorship was assessed at 24-h intervals, and LT50 times were calculated by nonlinear regression using a Hill equation.
# glucose oxidase (GOX) = test: Glucose oxidase activity of treated bees (social immunity); format: in vivo, Apis mellifera
# Method: (§2) Individual bees were sampled at 24-h intervals and frozen in liquid nitrogen. Social immunity was measured by quantifying the metabolism of glucose to hydrogen peroxide by glucose oxidase. Briefly, heads were homogenized in ice-cold extraction buffer then centrifuged at 15,000×g. Aliquots of supernatant were incubated with horse radish peroxidase and glucose at 37 °C, then combined with the chromogen o-dianisidine dihydrochloride. Absorbance was read at 430 nm over a period of 90 min and compared to sample blanks, lacking chromogen. To measure individual immunity, phenoloxidase activity was measured as described. Abdomens were homogenized as and centrifuged as previously described. Supernatant was incubated at 37 °C, then combined with the chromogen L-Dopa. Absorbance was measured at 490 nm for 20 min, then compared to sample blanks lacking chromogen. To compare both glucose oxidase and phenol oxidase activity between samples, Vmax was calculated using the Michaelis–Menten equation.
# [4] = tested on: bees inoculated with Israeli acute paralysis virus (IAPV); test: IAPV-mediated mortality of bees fed KATP modulator or paraquat; format: in vivo, Apis mellifera; set-up: Survivorship after IAPV inoculation compared to IAPV alone: dose or concentration left out as unconfirmed
# Method: IAPV was obtained following our previously described methods. Approximately 30 adult bees from a heavily infected IAPV infected colony were froze in liquid nitrogen, ground to a fine powder, and homogenized in a phosphate extraction buffer. The supernatant was collected after centrifuging the emulsion and filtered through a 0.2 micron filter. The filtrate was subsequently centrifuged at 30,000 rpm to pellet the picornavirus particles and was followed by resusopension in PBS and centrifuged at 52,000 rpm overnight. The fractions containing virus particles were dialyzed against cold PBS overnight. Verification that IAPV was the only virus present in the inoculum was performed via qRT-PCR and quantification of IAPV was performed by absolute quantification using standard curve method as previously described.
# Bees were immobilized on ice, then injected with PBS alone or containing IAPV and returned to the incubator. […] Quantification of IAPV mRNA among whole bees and excised insect dorsal vessels was performed by qRT-PCR as detailed below.
# phenoloxidase (POX) = test: Phenoloxidase activity of treated bees (individual immunity); format: in vivo, Apis mellifera
# Method: as §2
# honey bees [5] = format: in vivo, Apis mellifera; remark: listed apart in the source
# Method: as §1
# DWV-A = test: Field colony study, change in virus titer by qRT-PCR: DWV-A; format: in vivo, Deformed Wing virus
# Method: (§3) Nucleus colonies of bees were established as previously described and relocated to a geographically isolated apiary and were grown to full-size colonies and equalized based on population prior to initiation of the study. The bees were maintained in eight-frame Langstroth equipment and kept as single deeps with a medium super with undrawn foundation. […] DWV inoculum was prepared by injecting filter-sterilized homogenate from a DWV-positive symptomatic bee into white-eyed honey bee pupae. 72-h later, an aliquot of pupae was screened for preliminary confirmation of DWV infection and found to contain between 5E9 and 8E9 viral copies of DWV-A per individual. Remaining pupae were homogenized in ice-cold PBS, with aliquots retained for qRT-PCR screening of DWV, as well as additional viruses relevant to bee health. Homogenate solutions were diluted in 1:1 sucrose and placed in calibrated spray bottles. A treatment and sampling schedule was constructed based on the 21-day egg-to-adult life history of worker bees (Additional file 1: Fig. S1). Both pinacidil and virus solutions were prepared fresh daily. […] A quantity of 15 fully formed adult stage bees were removed from the capped cells and placed into 15 mL conical vials. All samples were stored on dry ice during field collection, then transferred to − 80 °C until virus quantification. Titers of DWV-A, DWV-B, BQCV, IAPV, LSV-1 and LSV-2 were quantified by qRT-PCR using primer sequences described in our previous publications.
# (§4) Samples were removed from − 80 °C storage and placed in a nuclease-free chilled bead bath (~ 4 °C) to gently thaw. […] RNA concentrations were then quantified for each sample using the NanoDrop 1-C® instrument. […] Library construction was performed using the Quantitect Reverse Transcription kit according to manufacturer instructions (Qiagen, N.V.). Template cDNA was then quantified by NanoDrop 1-C® and standardized to 500 ng/uL by addition of nuclease-free H2O.
# (§5) To accurately quantify virus infection, it was necessary to first construct a standard curve for each target virus. […]
# DWV-B = test: Field colony study, change in virus titer by qRT-PCR: DWV-B; format: in vivo, Deformed Wing virus
# Method: as §3, §4, §5
# LSV-2 = test: Field colony study, change in virus titer by qRT-PCR: LSV-2; format: in vivo, Lake Sinai virus; conditions: emerging brood, 2 mM pinacidil, colony level
# Method: as §3, with “individual.” for “individual. Remaining pupae were homogenized in ice-cold PBS, with aliquots retained for qRT-PCR screening of DWV, as well as additional viruses relevant to bee health. Homogenate solutions were diluted in 1:1 sucrose and placed in calibrated spray bottles. A treatment and sampling schedule was constructed based on the 21-day egg-to-adult life history of worker bees (Additional file 1: Fig. S1). Both pinacidil and virus solutions were prepared fresh daily.”
# as §4, with “Template cDNA was then quantified by NanoDrop 1-C® and standardized to 500 ng/uL by addition of nuclease-free H2O.” left out
# bee dorsal vessel = tested on: bee dorsal vessel; set-up: method as in PMID 28412203; conditions: cited from earlier work
# IAPV = IAPV mRNA titer in excised dorsal vessels by qRT-PCR; format: in vivo, Israeli acute paralysis virus; conditions: pinacidil 24 h prior to IAPV inoculation; vessels excised 24 h post-inoculation
# Method: Groups of 30 age-matched bees were fed 1:1 sucrose diet alone or containing KATP modulators or 0.5 mg/mL paraquat for 24 h. Bees were immobilized on ice, then injected with PBS alone or containing IAPV and returned to the incubator. Mortality assessments and sampling of survivors were conducted at 24-h intervals. Quantification of IAPV mRNA among whole bees and excised insect dorsal vessels was performed by qRT-PCR as detailed below.
# as §4
# To accurately quantify virus infection, it was necessary to first construct a standard curve for each target virus. […] Single-stranded DNA concentration was quantified for each cDNA library with the NanoDrop 1-C® instrument (Thermofisher Scientific) and the number of amplicon copies per μL of solution was determined using online calculators available at SciencePrimer.com. […]
# [6] = tested on: Black queen cell virus (BQCV); test: Field colony study, change in virus titer by qRT-PCR: BQCV; format: in vivo
# Method: as §3, §4, §5
# bee-relevant viruses = test: Field colony study, bee-relevant viruses overall; format: in vivo, Apis mellifera
# Method: as §3, §4, §5
# Flock House virus (FHV) = tested on: Flock House virus (FHV); set-up: method as in PMID 28819165; conditions: cited from earlier work
# [7] = emerging brood, 2 mM pinacidil, colony level
smiles,measurement,setting,value
"C[n+]1ccc(-c2cc[n+](C)cc2)cc1 [paraquat, Paraquat dichloride hydrate]",Reduction of total antioxidant concentrations compared to untreated,[1]; 24 h,1.3 fold
same,Reduction of total antioxidant concentrations compared to control treatment,[1]; 48 h,1.4 fold
same,Mortality,"honey bees [2]; paraquat 1 and 2 mg/mL, 48 h post-exposure",ca. 50%
same,Mortality,"honey bees [2]; paraquat 1 and 2 mg/mL, 72 h post-exposure",ca. 100%
same,Mortality,"honey bees [2]; paraquat, 48 h post-exposure",ca. 20%
same,Mortality,"honey bees [2]; paraquat, 72 h post-exposure",~58%
same,Survivorship difference between low and high mite groups,[3]; 1 and 2 mg/mL paraquat,no statistical differences
same,LT50 (95% CI),"[3]; High mites, paraquat 0.1 mg/mL",169 (142–177) Ba Hours
same,LT50 (95% CI),"[3]; High mites, paraquat 0.5 mg/mL",99 (71–136) Bb Hours
same,LT50 (95% CI),"[3]; High mites, paraquat 1 mg/mL",52 (22–84) Ac Hours
same,LT50 (95% CI),"[3]; High mites, paraquat 2 mg/mL",47 (38–63) Ac Hours
same,LT50 (95% CI),"[3]; Low mites, paraquat 0.1 mg/mL",82 (51–99) Aa Hours
same,LT50 (95% CI),"[3]; Low mites, paraquat 0.5 mg/mL",66 (52–80) Ab Hours
same,LT50 (95% CI),"[3]; Low mites, paraquat 1 mg/mL",54 (38–70) Ab Hours
same,LT50 (95% CI),"[3]; Low mites, paraquat 2 mg/mL",49 (42–56) Ab Hours
same,Survivorship of bees from high versus low mite-infested colonies,"[3]; paraquat 0.1 mg/mL, 96- to 168-h post treatment",significantly increased
same,Mortality in high mite versus low mite colonies,"[3]; paraquat 0.5 mg/mL, 72- and 96-h post treatment",significant (P < 0.05) reduction of mortality
same,Decrease in GOX compared to pinacidil-treated bees,glucose oxidase (GOX); in vivo,3.3 fold
same,Decrease in GOX compared to untreated bees,glucose oxidase (GOX); in vivo,11 fold
same,Survivorship after IAPV inoculation compared to IAPV alone,[4],increased survivorship
same,Mortality of IAPV + paraquat versus untreated control,"[4]; 0.5 mg/mL paraquat, 24- and 48-h post-inoculation",not significantly different
same,Mortality of paraquat + IAPV versus untreated and IAPV-only bees,"[4]; 0.5 mg/mL paraquat, 72 h post-inoculation","significantly (P < 0.05) greater than untreated bees, but significantly less than IAPV-only treated bees"
same,POX activity,phenoloxidase (POX); 72 h post-exposure,significantly reduced
same,LT50,"honey bees [5]; 0.5 mg/mL paraquat alone, injection experiment",ca. 75 h
same,LT50,"honey bees [5]; oral, paraquat exposure alone",ca. 68 h
CCCCNC(=O)NS(=O)(=O)c1ccc(C)cc1 [tolbutamide],Effect on paraquat-induced toxicity,"honey bees [5]; pre-exposure to modulator, 120-h feeding period",did not alter
CC(N/C(=N\C#N)Nc1ccncc1)C(C)(C)C (stereo not shown) [pinacidil],Antioxidant levels compared to untreated individuals,[1]; 24 h post-treatment,did not reduce
same,Reduction of total antioxidant concentrations,[1]; 72 h,1.5 fold
same,Change of DWV-A titer versus uninoculated colonies,"DWV-A; emerging brood, 2 mM pinacidil",not significantly different
same,Reduction of change in DWV-A titer compared to virus only inoculated colonies,DWV-A; [7],eight
same,"DWV-A titers, virus only versus pinacidil + virus",DWV-A; nurse/forager bees,not significantly different
same,Change of DWV-B titer versus uninoculated colonies,"DWV-B; emerging brood, 2 mM pinacidil",not significantly different
same,Reduction of change in DWV-B titer compared to virus only inoculated colonies,DWV-B; [7],sixfold
same,"DWV-B titers, virus only versus pinacidil + virus",DWV-B; nurse/forager bees,not significantly different
same,Reduction of LSV-2 replication compared to virus inoculation-only colonies,LSV-2,approximately fivefold
same,Dorsal vessel contraction rates,bee dorsal vessel,increases
same,Reduction in IAPV mRNA titer in the dorsal vessel versus IAPV-inoculated bees,IAPV,17.5 fold
same,Increase in GOX activity compared to untreated bees,glucose oxidase (GOX); 24-h exposure,3 fold
same,Increase in GOX activity compared to untreated bees,glucose oxidase (GOX); 72-h exposure,2.3 fold
same,Change in BQCV titer versus untreated colonies,"[6]; emerging brood, 2 mM pinacidil",not significantly different
same,Reduction of BQCV replication compared to virus only,[6]; [7],3.8 fold
same,BQCV replication compared to virus only inoculated colonies,[6]; nurse/forager bees,did not reduce viral replication
same,Mortality of pinacidil + IAPV versus control treatment,"[4]; 24-, 72-, or 96-h post-inoculation",No significant difference
same,Reduction in mortality compared to control bees,"[4]; pinacidil + IAPV, 48 and 120 h",25%
same,POX activity,phenoloxidase (POX); 24- and 72-h exposure,no statistical differences
same,Reduction of titers of bee-relevant viruses,bee-relevant viruses; colonies treated with pinacidil in the field,up to 75 fold
same,Viral replication in nurse bees,bee-relevant viruses; field study,did not reduce viral replication
same,Viral replication in emerging bees,"bee-relevant viruses; field study, mature colonies",near elimination
same,Effect against FHV infection of bees,Flock House virus (FHV),protective effect
